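Exposure lasted 48 hours, with cells grown in 96-well plates and compounds tested at five concentrations. The concentration for 50% growth inhibition is given as GI50.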 Calls of active or inactive are those of the source. Rule as the data show it: active = GI50 up to about 1.1 µM and inactive = higher.
How the values were obtained:
Assay in all cases: DTP human tumour cell line panel, 48 h
[1] = tested on: M14
[2] = tested on: A549
[3] = tested on: HCT-116
[4] = tested on: HL-60
[5] = tested on: SF-268
[6] = tested on: LOX IMVI
[7] = tested on: A498
[8] = tested on: TK-10
[9] = tested on: MOLT-4
[10] = tested on: RPMI-8226
[11] = tested on: HOP-92
[12] = tested on: SN12C
[13] = tested on: SR
[14] = tested on: SW-620
[15] = tested on: OVCAR-4
[16] = tested on: 786-0
[17] = tested on: SNB-19
[18] = tested on: EKVX

Structure (SMILES) | GI50 [1] | GI50 [2] | GI50 [3] | GI50 [4] | GI50 [5] | GI50 [6] | GI50 [7] | GI50 [8] | GI50 [9] | GI50 [10] | GI50 [11] | GI50 [12] | GI50 [13] | GI50 [14] | GI50 [15] | GI50 [16] | GI50 [17] | GI50 [18]
O=c1oc2c3ccc4ccccc4c3n(Cc3nc4ccccc4[nH]3)c2c2ccccc12 | 4.71 µM (inactive) | 5.61 µM (inactive) | 4.72 µM (inactive) | 3.7 µM (inactive) | 15.6 µM (inactive) | 2.26 µM (inactive) | 24.4 µM (inactive) | > 100 µM (inactive) | 1.11 µM (active) | 3.48 µM (inactive) | > 29.3 µM (inactive) | 3.72 µM (inactive) | 0.791 µM (active) | 2.2 µM (inactive) | 24.9 µM (inactive) | 7.16 µM (inactive) | 4.5 µM (inactive) | 23.6 µM (inactive)
O/N=C/c1ccc(O)c(O)c1 | 97.5 µM (inactive) | > 100 µM (inactive) | > 100 µM (inactive) | 12.8 µM (inactive) | > 100 µM (inactive) | 67.8 µM (inactive) | > 100 µM (inactive) | > 100 µM (inactive) | 20.5 µM (inactive) | – | > 100 µM (inactive) | > 100 µM (inactive) | 37.2 µM (inactive) | 15.4 µM (inactive) | 77.3 µM (inactive) | > 100 µM (inactive) | > 100 µM (inactive) | 75.7 µM (inactive)
COc1cc(-c2cc(-c3cc([N+](=O)[O-])c(/C=N/NC(=O)c4ccncc4)o3)ccc2OC)ccc1C | > 100 µM (inactive) | > 100 µM (inactive) | – | > 10 µM (inactive) | > 100 µM (inactive) | > 100 µM (inactive) | > 100 µM (inactive) | > 100 µM (inactive) | – | > 100 µM (inactive) | > 100 µM (inactive) | > 100 µM (inactive) | – | > 100 µM (inactive) | > 100 µM (inactive) | > 100 µM (inactive) | > 100 µM (inactive) | > 100 µM (inactive)
CCc1cc(C)cc2[n+]1CC=C2.[O-][Cl+3]([O-])([O-])[O-] | 22.3 µM (inactive) | 24.6 µM (inactive) | 18.2 µM (inactive) | 0.125 µM (active) | 32.5 µM (inactive) | 32.7 µM (inactive) | – | 44.1 µM (inactive) | – | – | 11.6 µM (inactive) | 22.2 µM (inactive) | – | 7.33 µM (inactive) | 34.1 µM (inactive) | 27.5 µM (inactive) | 28.6 µM (inactive) | 25.4 µM (inactive)
N#CC1C(=O)NC(=O)C1=O (stereo not drawn) | > 100 µM (inactive) | – | > 100 µM (inactive) | – | > 100 µM (inactive) | > 100 µM (inactive) | > 100 µM (inactive) | > 100 µM (inactive) | > 100 µM (inactive) | > 100 µM (inactive) | > 100 µM (inactive) | > 100 µM (inactive) | – | > 100 µM (inactive) | > 100 µM (inactive) | > 100 µM (inactive) | > 100 µM (inactive) | > 100 µM (inactive)
CC12CC(=O)OC(Cc3ccccc31)O2 (stereo not drawn) | > 100 µM (inactive) | > 100 µM (inactive) | > 100 µM (inactive) | > 100 µM (inactive) | > 100 µM (inactive) | > 100 µM (inactive) | – | > 100 µM (inactive) | > 100 µM (inactive) | > 100 µM (inactive) | > 100 µM (inactive) | > 100 µM (inactive) | > 100 µM (inactive) | > 100 µM (inactive) | – | > 100 µM (inactive) | > 100 µM (inactive) | > 100 µM (inactive)
Cc1cc(NS(=O)(=O)c2ccc(NC(=O)c3cccc4c(=O)c5ccccc5[nH]c34)cc2)no1 | – | > 100 µM (inactive) | 36.9 µM (inactive) | 30.9 µM (inactive) | 30.5 µM (inactive) | 31.4 µM (inactive) | 28.8 µM (inactive) | 40.2 µM (inactive) | 39.4 µM (inactive) | 33.8 µM (inactive) | 29.5 µM (inactive) | 44.1 µM (inactive) | 28.2 µM (inactive) | 55.6 µM (inactive) | 51.6 µM (inactive) | 10.2 µM (inactive) | 36.2 µM (inactive) | 43.6 µM (inactive)
O=c1cc(-c2ccc(O)cc2)oc2cc(O)cc(O)c12 [APIGENIN] | 44.4 µM (inactive) | 42.9 µM (inactive) | 24.2 µM (inactive) | 29.7 µM (inactive) | 27.5 µM (inactive) | 21.4 µM (inactive) | – | 41.2 µM (inactive) | 23 µM (inactive) | 37.7 µM (inactive) | 20.2 µM (inactive) | 30.4 µM (inactive) | 33.6 µM (inactive) | – | 32.2 µM (inactive) | 34.3 µM (inactive) | 29.7 µM (inactive) | 33.5 µM (inactive)
O=C(O)CC1CC=C[C@H]2c3cc4c(cc3C(=O)NC12)OCO4 (stereo partly drawn) | > 75 µM (inactive) | > 75 µM (inactive) | > 75 µM (inactive) | > 75 µM (inactive) | > 75 µM (inactive) | > 75 µM (inactive) | – | > 75 µM (inactive) | > 75 µM (inactive) | > 75 µM (inactive) | – | > 75 µM (inactive) | > 75 µM (inactive) | > 75 µM (inactive) | – | > 75 µM (inactive) | > 75 µM (inactive) | > 75 µM (inactive)
COC(=O)[C@@]12OC[C@]34C([C@@H](O)C1O)[C@@]1(C)CC(=O)C(O)=C(C)C1C[C@H]3OC(=O)[C@H](OC(=O)CC(C)C(F)(F)F)[C@H]42 (stereo partly drawn) | 0.0347 µM (active) | 0.0265 µM (active) | 0.0101 µM (active) | 0.00375 µM (active) | 0.0869 µM (active) | – | 0.0214 µM (active) | 0.0662 µM (active) | 0.0047 µM (active) | 0.0116 µM (active) | 0.00953 µM (active) | 0.145 µM (active) | 0.00429 µM (active) | 0.022 µM (active) | 0.0676 µM (active) | 0.0646 µM (active) | 0.00802 µM (active) | 0.128 µM (active)
COc1cc(O)c(C(=O)/C=C/c2ccc(OC)c(OCc3ccccc3)c2)c(OC)c1 | > 100 µM (inactive) | 64.6 µM (inactive) | 4.55 µM (inactive) | 8.67 µM (inactive) | – | 33.7 µM (inactive) | – | > 100 µM (inactive) | 5.46 µM (inactive) | 5.86 µM (inactive) | > 100 µM (inactive) | > 100 µM (inactive) | 4.08 µM (inactive) | 36.5 µM (inactive) | > 100 µM (inactive) | > 100 µM (inactive) | > 100 µM (inactive) | > 100 µM (inactive)
O=CN/C=C/c1ccc(O)c(O)c1 | > 100 µM (inactive) | > 100 µM (inactive) | > 100 µM (inactive) | 55 µM (inactive) | > 100 µM (inactive) | > 100 µM (inactive) | > 100 µM (inactive) | > 100 µM (inactive) | > 100 µM (inactive) | > 100 µM (inactive) | > 100 µM (inactive) | > 100 µM (inactive) | – | > 100 µM (inactive) | > 100 µM (inactive) | > 100 µM (inactive) | > 100 µM (inactive) | > 100 µM (inactive)
CCOC(=O)C(=O)Nc1nc2c(s1)C(=O)c1ccccc1C2=O | 15.7 µM (inactive) | 17.8 µM (inactive) | 13.3 µM (inactive) | – | 14.1 µM (inactive) | – | 16.1 µM (inactive) | – | 2.32 µM (inactive) | 4.74 µM (inactive) | 12.2 µM (inactive) | 16.5 µM (inactive) | 3.43 µM (inactive) | 13.4 µM (inactive) | 17.1 µM (inactive) | 17.4 µM (inactive) | 17.9 µM (inactive) | 16.1 µM (inactive)
Cc1ccc(/N=C/c2ccc3c(c2)OCO3)cc1C | > 100 µM (inactive) | > 100 µM (inactive) | > 100 µM (inactive) | > 100 µM (inactive) | > 100 µM (inactive) | > 100 µM (inactive) | > 100 µM (inactive) | > 100 µM (inactive) | > 100 µM (inactive) | > 100 µM (inactive) | > 100 µM (inactive) | > 100 µM (inactive) | > 100 µM (inactive) | > 100 µM (inactive) | – | > 100 µM (inactive) | > 100 µM (inactive) | > 100 µM (inactive)
O=C1CCC2CCOc3ccc(O)c1c32 (stereo not drawn) | > 100 µM (inactive) | > 100 µM (inactive) | > 100 µM (inactive) | > 100 µM (inactive) | > 100 µM (inactive) | – | > 100 µM (inactive) | > 100 µM (inactive) | > 100 µM (inactive) | > 100 µM (inactive) | > 100 µM (inactive) | > 100 µM (inactive) | > 100 µM (inactive) | – | > 100 µM (inactive) | > 100 µM (inactive) | > 100 µM (inactive) | > 100 µM (inactive)
CC(=O)Nc1ccc(S(=O)(=O)N/N=C/c2cc(I)cc([N+](=O)[O-])c2O)cc1 | 46.6 µM (inactive) | > 100 µM (inactive) | – | 31.5 µM (inactive) | 32.9 µM (inactive) | 80.9 µM (inactive) | > 100 µM (inactive) | > 100 µM (inactive) | 32.7 µM (inactive) | 36.6 µM (inactive) | – | 64.3 µM (inactive) | – | > 100 µM (inactive) | 30.3 µM (inactive) | > 100 µM (inactive) | 55.3 µM (inactive) | 60.5 µM (inactive)
CCOC(=O)c1sc2c(C(=O)OCC)n3ccccc3c2c1N | > 100 µM (inactive) | > 100 µM (inactive) | 81.5 µM (inactive) | > 100 µM (inactive) | 21.7 µM (inactive) | > 100 µM (inactive) | 71.9 µM (inactive) | 52.7 µM (inactive) | > 100 µM (inactive) | > 100 µM (inactive) | 13.4 µM (inactive) | 96.8 µM (inactive) | – | > 100 µM (inactive) | > 100 µM (inactive) | 36.2 µM (inactive) | 31.7 µM (inactive) | 59.4 µM (inactive)
